Laboratory results as given in patent US20120183950A1, “TISSUE ANALYSIS” (priority 2009, published 2012).

Test system: influenza virus H3N2X31
Format: cell-based
Conditions: human bronchial and parenchymal lung tissue explants, X31 virus, NP-1 antibody, flow cytometry; FIG. 8

## CCOC(=O)C1=C[C@@H](OC(CC)CC)[C@H](NC(C)=O)[C@@H](N)C1 [oseltamivir]
  efficacy as inhibitor of viral infection in the explant model (primary output: percentage of cells infected): demonstrated the efficacy

## Cl.N [ammonium chloride]
  efficacy as inhibitor of viral infection in the explant model (primary output: percentage of cells infected): demonstrated the efficacy
